{"source": "patent US11337424B2", "about": "“Fungicidal compounds and mixtures for fungal control in cereals” (Corteva Agriscience LLC, priority 2016, dated 2022)", "type_in_all_cases": "in vivo", "key": {"[1]": {"test_system": "Puccinia recondita (PUCCRT)", "test": "Field assessment of brown rust of wheat (PUCCRT), 2 field trials, relative AUDPC", "settings": "% control based on AUDPC, average of 2 trials", "from_the_text": "(§1) Treatments consisted of the compound of Formula I and fenpicoxamid either using individually or as a two-way mixture with the compound of Formula I. The compound of Formula I was applied with Agnique BP-420 (50% w/w at 0.3% v/v) at 75 and 150 g ai/ha and fenpicoxamid was applied with Agnique BP-420 (50% w/w at 0.3% v/v) at 75 and 100 g ai/ha. Commercial standards used in the studies were Fluxapyroxad (Imtrex), applied at 100 g ai/ha, and Metconazole+Fluxapyroxad (Librax), applied at 161 g ai/ha.\nField Assessment of Puccinia recondita (PUCCRT) in Wheat:\nFungicidal treatment containing the compound of Formula I and fenpicoxamid, either individually or as a two mixture, were assessed against brown rust of wheat (PUCCRT) in two separate field trials. In the first trial, fungicidal treatments were applied at B37-39 (protectant, approximately 0% infection at application) growth stage of wheat (TRZAW, MV Vanek variety) under natural infection of brown rust. The treatment was part of an experimental trial designed as a randomized complete block with four replications and a plot of approximately 2×3 m. Fungicidal treatments were applied at a water volume of 200 L/ha, using a backpack plot sprayer with a TEEJET QJ90-2XTT110 015 Nozzle.\nIn the second trial, fungicidal treatments containing the compound of Formula I and fenpicoxamid, either individually or as a two way mixture, were applied at B33 (curative, approximately 6.6% infection at application) growth stage of wheat (TRZAW, Miradoux variety) under natural infection of brown rust. The treatments were part of an experimental trial designed as a randomized complete block with four replications and a plot of approximately 2×3 m. Fungicidal treatments were applied at a water volume of 200 L/ha, using a backpack plot sprayer with a HARDI MD110-02 Nozzle.\n(§2) Disease severity (percentage of visual diseased foliage on whole plot or leaves) in both field trials was assessed at 5 weeks after application and was recorded following EPPO PP1/26 guideline prescriptions. Area under the disease progress curve (AUDPC) was calculated for each plot in both trials using the sets of recorded severity data. Relative AUDPC (% control based on AUDPC) was calculated as percent of the nontreated control. Final results for the control of brown rust of wheat by the compound of Formula I, fenpicoxamid, and mixtures are reported as an average of the relative AUDPC calculated over both field trials. Statistical analysis was done according to ANOVA and Tukey's test (p=0.10)."}, "[2]": {"test_system": "Puccinia striiformis (PUCCST)", "test": "Field assessment of yellow rust of wheat (PUCCST), 2 field trials, relative AUDPC", "settings": "% control based on AUDPC, average of 2 trials", "from_the_text": "as §1\nField Assessment of Puccinia striiformis (PUCCST) in Wheat:\nFungicidal treatments containing the compound of Formula I and fenpicoxamid, either individually or as a two way mixture, were assessed against yellow rust of wheat (PUCCST) in two separate field trials. In the first trial, fungicidal treatments were applied twice at B31-32 (early curative, 4% infection at application on L3) and B39 (16.3% infection at application on L3) growth stages of winter wheat (TRZAW, Fairplay variety) under naturally occurring infection with PUCCST. The treatments were part of an experimental trial designed as a randomized complete block with four replications and a plot of approximately 1×6 m. Treatments were applied at water volume of 200 L/ha, using a backpack plot sprayer (BKPCKENG, F110-015 Hardi (3) Flat fan nozzle) and pressurized at 200 kPa.\nIn the second trial, fungicidal treatments containing the compound of Formula I and fenpicoxamid, either individually or as a two way mixture, were applied twice at B32 (protectant, 0% infection on L3 at application) and B37 (early curative, 20% infection on L3 at application) growth stages of wheat (TRZAW, Torch variety) under naturally occurring infection with PUCCST. The treatment was part of an experimental trial designed as a randomized complete block with four replications and a plot of approximately 2×4 m. Treatments were applied at water volume of 200 L/ha, using a backpack precision plot sprayer (BKCKAIR, F110-03 Hypro (4) Flat fan nozzle) and pressurized at 210 kPa.\nas §2, with “4-7” for “5”, “yellow” for “brown”"}, "[3]": {"test_system": "Zymoseptoria tritici (SEPTTR)", "test": "Field assessment of leaf blotch of wheat (SEPTTR), 3 field trials, relative AUDPC", "settings": "% control based on AUDPC, average of 3 trials", "from_the_text": "as §1\nField Assessment of Zymoseptoria Tritici (SEPTTR) in Wheat:\nFungicidal treatments containing the compound of Formula I and fenpicoxamid, either individually or as a two way mixture, were assessed against leaf spot of wheat (SEPTTR) in three separate field trials. In the first trial, fungicidal treatments were applied at B37 (curative, 1.8% infection at application on L4) growth stage of winter wheat (TRZAW, Sy moisson variety) under naturally occurring infection with SEPTTR. The treatments were part of an experimental trial designed as a randomized complete block with four replications and a plot of approximately 2×4 m. Treatments were applied at water volume of 200 L/ha, using a backpack plot sprayer (BKPCKAIR, FLAT FAN nozzle) and pressurized at 250 kPa.\nIn the second trial, fungicidal treatments were applied twice at B32 (curative, 15% infection at application on L5) and B39 (16% infection at application on L4) growth stages of winter wheat (TRZAW, Riband variety) under naturally occurring infection with SEPTTR. The treatments were part of an experimental trial designed as a randomized complete block with four replications and a plot of approximately 1.5×2 m. Treatments were applied at water volume of 200 L/ha, using a backpack plot sprayer (BKPCKAIR, Flat fan nozzle) and pressurized at 180 kPa.\nIn the final trial, fungicidal treatments were applied twice at B32 (protective, 15% infection at application on L6) and B37 (12% infection at application on L5) growth stages of winter wheat (TRZAW, Smaragd variety) under naturally occurring infection with SEPTTR. […]\nas §2, with “at 7-9” for “at 5”, “of leaf spot” for “of brown rust”, “over all three” for “over both”, “trials. […]” for “trials. Statistical analysis was done according to ANOVA and Tukey's test (p=0.10).”"}}}
{"smiles": "COc1ccnc(C(=O)N[C@H]2COC(=O)[C@H](Cc3ccccc3)[C@@H](OC(=O)C(C)C)[C@H](C)OC2=O)c1OCOC(=O)C(C)C", "note": "[Fenpicoxamid, (3S,6S,7R,8R)-8-benzyl-3-(3-((isobutyryloxy)methoxy)-4-methoxypicolinamido)-6-methyl-4,9-dioxo-1,5-dioxonan-7-yl isobutyrate]", "values": [{"measurement": "PUCCRT % Control", "setting": "[1]; 75 g ai/ha", "result": 63.5, "unit": "%"}, {"measurement": "PUCCRT % Control", "setting": "[1]; 100 g ai/ha", "result": 74.5, "unit": "%"}, {"measurement": "PUCCST % Control", "setting": "[2]; 75 g ai/ha", "result": 56.5, "unit": "%"}, {"measurement": "PUCCST % Control", "setting": "[2]; 100 g ai/ha", "result": 60.5, "unit": "%"}, {"measurement": "SEPTTR % Control", "setting": "[3]; 50 g ai/ha", "result": 48.7, "unit": "%"}, {"measurement": "SEPTTR % Control", "setting": "[3]; 75 g ai/ha", "result": 57.7, "unit": "%"}]}
{"smiles": "N#Cc1ccc(Oc2ccc(C(F)(F)C(O)(Cn3nc[nH]c3=S)c3ccc(F)cc3F)nc2)cc1", "note": "(stereo not drawn) [Compound I, 4-((6-(2-(2,4-difluorophenyl)-1,1-difluoro-2-hydroxy-3-(5-thioxo-4,5-dihydro-1H-1,2,4-triazol-1-yl)propyl)pyridin-3-yl)oxy)benzonitrile]", "values": [{"measurement": "PUCCRT % Control", "setting": "[1]; 75 g ai/ha", "result": 79.7, "unit": "%"}, {"measurement": "PUCCRT % Control", "setting": "[1]; 150 g ai/ha", "result": 89.0, "unit": "%"}, {"measurement": "PUCCST % Control", "setting": "[2]; 75 g ai/ha", "result": 82.7, "unit": "%"}, {"measurement": "PUCCST % Control", "setting": "[2]; 150 g ai/ha", "result": 85.5, "unit": "%"}, {"measurement": "SEPTTR % Control", "setting": "[3]; 75 g ai/ha", "result": 48.2, "unit": "%"}, {"measurement": "SEPTTR % Control", "setting": "[3]; 150 g ai/ha", "result": 65.8, "unit": "%"}]}
